{"source": "patent US4620014A", "about": "“2-furylbutyrolactones and methods for using same” (priority 1983, dated 1986)", "test_system": "spleen lymphocytes of BALB/C mice", "conditions": "4 days", "method": "The purpose of this assay is to challenge lymphocytes in microcultures with one or more polyclonal mitogens at concentrations that will induce mitogenesis within 72 hours of stimulation.\nIn the mouse model, spleens are removed from different strains of mice and the spleen cells are teased free and suspended in RPMI-1640 tissue culture medium at a concentration of usually 1×10^7 ml. These cells are dispensed at a concentration of 5.0×10^5 cells per microculture well in a 96 well flat bottom 96 well tissue culture plate. All testing of the compounds of this invention or mitogens are done in replicates of 10. The cells are then treated with PHA, Con-A, specific antigens, or buffer only. If in vitro testing is done, varying concentrations of the compounds of this invention or buffer only are added to the cells as well. After treatment with the mitogens and/or compounds of this invention, the cells are incubated for 72 hours. The response of these cells to mitogens and/or the compounds of this invention is assessed using ^14 C-thymidine labeling on the fourth day at a concentration of 0.01 μCi/well. The labeled cells are harvested using a lymphocyte harvestor and placed onto fibrous paper discs. […] The data is expressed as a ratio of the cpm of the mitogen stimulated group to the control (non-mitogen) treated group=lymphocyte stimulation index (LSI). […]"}
{"smiles": "Cc1ccc(C2(O)C(=O)OC3C(O)COC32O)o1.Cc1ccc(C2(O)C(=O)OC3C(O)COC32O)o1.O=C1CCC(=O)O1", "note": "(centres unmarked) [Cpd. 1]", "values": [{"measurement": "DNA synthesis of spleen cell lymphocytes", "setting": "400 mg/kg, compared to 200 mg/kg", "value": "suppress DNA synthesis"}, {"measurement": "lymphocyte DNA synthesis, PHA and Con-A", "setting": "50, 100 and 200 mg/kg i.p.", "value": "tend to stimulate lymphocyte DNA synthesis"}]}
